Experimental data from ChEMBL document CHEMBL5500339, “4-Hydroxy-2-pyridone derivatives with antitumor activity produced by mangrove endophytic fungus Talaromyces sp. CY-3” (Eur J Med Chem, 2024).

How the values were obtained:
A549 [1] = assay: Induction of cell cycle arrest in human A549 cells assessed as accumulation of cells at G1/G0 phase at 2 uM incubated for 24 hrs by flow cytometric analysis (reference value: 51.49 %); assay type: functional
A549 [2] = assay: Induction of cell cycle arrest in human A549 cells assessed as accumulation of cells at S phase at 2 uM incubated for 24 hrs by flow cytometric analysis (reference value: 31.31 %); assay type: functional
A549 [3] = assay: Induction of cell cycle arrest in human A549 cells assessed as accumulation of cells at G2/M phase at 2 uM incubated for 24 hrs by flow cytometric analysis (reference value: 17.2 %); assay type: functional
NCI-H1703 [4] = assay: Induction of cell cycle arrest in human NCI-H1703 cells assessed as accumulation of cells at G1/G0 phase at 2 uM incubated for 24 hrs by flow cytometric analysis (reference value: 42.06 %); assay type: functional
NCI-H1703 [5] = assay: Induction of cell cycle arrest in human NCI-H1703 cells assessed as accumulation of cells at S phase at 2 uM incubated for 24 hrs by flow cytometric analysis (reference value: 28.06 %); assay type: functional
NCI-H1703 [6] = assay: Induction of cell cycle arrest in human NCI-H1703 cells assessed as accumulation of cells at G2/M phase at 2 uM incubated for 24 hrs by flow cytometric analysis (reference value: 29.88 %); assay type: functional
A549 [7] = assay: Cytotoxicity against human A549 cells assessed as reduction in cell viability incubated for 48 hrs by MTT assay; assay type: functional, cell-based; conditions: A549, 48 h
MDA-MB-231 = assay: Cytotoxicity against human MDA-MB-231 cells assessed as reduction in cell viability incubated for 48 hrs by MTT assay; assay type: functional, cell-based; conditions: MDA-MB-231, 48 h
MDA-MB-435 = assay: Cytotoxicity against human MDA-MB-435 cells assessed as reduction in cell viability incubated for 48 hrs by MTT assay; assay type: functional, cell-based; conditions: MDA-MB-435, 48 h
SNB-19 = assay: Cytotoxicity against human SNB-19 cells assessed as reduction in cell viability incubated for 48 hrs by MTT assay; assay type: functional, cell-based; conditions: SNB-19, 48 h
HCT-116 = assay: Cytotoxicity against human HCT-116 cells assessed as reduction in cell viability incubated for 48 hrs by MTT assay; assay type: functional, cell-based; conditions: HCT-116, 48 h
PC-3 = assay: Cytotoxicity against human PC-3 cells assessed as reduction in cell viability incubated for 48 hrs by MTT assay; assay type: functional, cell-based; conditions: PC-3, 48 h

For `CC(=O)c1c(C)c2cnc(Nc3ccc(N4CCNCC4)cn3)nc2n(C2CCCC2)c1=O` [PALBOCICLIB], the Activity (A549 [1]) was 89.43%, the Activity (A549 [2]) was 5.87% and the Activity (A549 [3]) was 4.7%. The Activity (NCI-H1703 [4]) was 72.21%, the Activity (NCI-H1703 [5]) was 6.88% and the Activity (NCI-H1703 [6]) was 20.91%.
With `C/C=C/[C@@H]1Oc2c(-c3ccccc3)cn(O)c(=O)c2[C@@H]2[C@H]1CCC[C@H]2C` the IC50 (A549 [7]) was 32.7 µM, the IC50 (MDA-MB-231) was 20.1 µM and the IC50 (MDA-MB-435) was 20.3 µM. For the same compound, the IC50 (SNB-19) was 20.3 µM, the IC50 (HCT-116) was 14.4 µM and the IC50 (PC-3) was 49.1 µM.
For `CC[C@H](C)C[C@@H](C)/C=C(\C)[C@@H]1O[C@H](c2c(O)c(-c3ccc(O)cc3)cn(C)c2=O)CC[C@H]1CO`, the IC50 (A549 [7]) was 8.41 µM, the IC50 (MDA-MB-231) was greater than 50 µM and the IC50 (MDA-MB-435) was 2.3 µM. It also gave an IC50 (SNB-19) greater than 50 µM, an IC50 (HCT-116) of 10.5 µM and an IC50 (PC-3) greater than 50 µM.
Compound `CC[C@H](C)C[C@@H](C)/C=C(\C)[C@@H]1O[C@H](c2c(O)c(-c3ccccc3)cn(C)c2=O)CC[C@H]1C` has an IC50 (A549 [7]) of 9.51 µM, an IC50 (MDA-MB-231) of 7.84 µM and an IC50 (MDA-MB-435) of 24.6 µM. For the same compound, the IC50 (SNB-19) was 5.76 µM, the IC50 (HCT-116) was 2.45 µM and the IC50 (PC-3) was 16.3 µM.
For `CC[C@H](C)C[C@@H](C)/C=C(\C)[C@@H]1O[C@H](c2c(O)c(-c3ccc(O)cc3)cn(C)c2=O)CC[C@]1(C)O`, the IC50 (A549 [7]) was 11.1 µM, the IC50 (MDA-MB-231) was 8.49 µM and the IC50 (MDA-MB-435) was 6.15 µM. It also gave an IC50 (SNB-19) greater than 50 µM, an IC50 (HCT-116) of 10.5 µM and an IC50 (PC-3) of 8.1 µM.
`CC[C@H](C)C[C@@H](C)/C=C(\C)[C@@H]1O[C@H](c2c(O)c(-c3ccc(O)cc3)cn(C)c2=O)CC=C1C` gave an IC50 (A549 [7]) of 48.9 µM, an IC50 (MDA-MB-231) of 43.1 µM and an IC50 (MDA-MB-435) of 34.9 µM. The IC50 (SNB-19) was 40.4 µM, the IC50 (HCT-116) was 29.2 µM and the IC50 (PC-3) was greater than 50 µM.
For `CC[C@H](C)C[C@@H](C)/C=C(\C)[C@@H]1O[C@H](c2c(O)c(-c3ccccc3O)cn(C)c2=O)CC[C@H]1C`, the IC50 (A549 [7]) was greater than 50 µM, the IC50 (MDA-MB-231) was 12.7 µM and the IC50 (MDA-MB-435) was 6.95 µM. The IC50 (SNB-19) was greater than 50 µM, the IC50 (HCT-116) was 7.57 µM and the IC50 (PC-3) was 18.6 µM.
Compound `C/C=C/[C@@H]1Oc2c(-c3ccccc3)c[nH]c(=O)c2[C@@H]2[C@H]1CCC[C@H]2C` has an IC50 (A549 [7]) greater than 50 µM, an IC50 (MDA-MB-231) greater than 50 µM and an IC50 (MDA-MB-435) of 29.5 µM. The IC50 (SNB-19) was 13.4 µM, the IC50 (HCT-116) was 16.8 µM and the IC50 (PC-3) was 36.1 µM.
`CC[C@H](C)C[C@@H](C)/C=C(\C)[C@@H]1O[C@H](c2c(O)c(-c3ccc(O)cc3)c[nH]c2=O)CC[C@H]1C` showed an IC50 (A549 [7]) of 3.46 µM, an IC50 (MDA-MB-231) of 4.4 µM and an IC50 (MDA-MB-435) of 10 µM. For the same compound, the IC50 (SNB-19) was greater than 50 µM, the IC50 (HCT-116) was 2.51 µM and the IC50 (PC-3) was 6.65 µM.
Compound `CC[C@H](C)C[C@@H](C)/C=C(\C)[C@H]1O[C@@H](c2c(O)c(-c3ccccc3)c[nH]c2=O)CC=C1C` has an IC50 (A549 [7]) of 3.81 µM, an IC50 (MDA-MB-231) of 5.28 µM and an IC50 (MDA-MB-435) of 9.02 µM. For the same compound, the IC50 (SNB-19) was 6.76 µM, the IC50 (HCT-116) was 1.76 µM and the IC50 (PC-3) was 2.18 µM.
With `CC[C@H](C)C[C@@H](C)/C=C(\C)[C@@H]1O[C@H](c2c(O)c(-c3ccccc3)c[nH]c2=O)CC[C@H]1C` the IC50 (A549 [7]) was 3.89 µM, the IC50 (MDA-MB-231) was 5 µM and the IC50 (MDA-MB-435) was 7.29 µM. It also gave an IC50 (SNB-19) greater than 50 µM, an IC50 (HCT-116) greater than 50 µM and an IC50 (PC-3) of 11.4 µM.
`CC[C@H](C)C[C@@H](C)/C=C(\C)[C@@H]1O[C@H](c2c(O)c(-c3ccc(O)cc3)cn(C)c2=O)CC[C@H]1C` showed an IC50 (A549 [7]) of 14.9 µM, an IC50 (MDA-MB-231) of 14.9 µM and an IC50 (MDA-MB-435) of 9.41 µM. For the same compound, the IC50 (SNB-19) was 9.04 µM, the IC50 (HCT-116) was 7.74 µM and the IC50 (PC-3) was 43 µM.
